According to US10280198B2, “Therapeutic agents for reducing parathyroid hormone levels” (KAI PHARMACEUTICALS, INC., priority 2009, dated 2019):
Entries after “also recorded” stand apart in the source; their conditions may differ.

Key:
plasma PTH [1] = experiment: 1K1C rat model of acute renal insufficiency, plasma PTH after dosing; assay type: in vivo; settings: 1K1C rats
From the text: A rat model of acute renal insufficiency (also referred to as the 1K1C model) was developed to simulate the pathology of SHPT associated with end stage renal disease. […] The development of this model allowed for the further characterization of described compounds in the context of a subject with renal dysfunction and elevated PTH. Typical baseline PTH levels in this model averaged ˜450 pg/mL.
The ensuing ischemia/reperfusion (I/R) damage to the remaining kidney results in significant necrosis and renal failure. Serum creatinine levels were elevated for over 24-48 hours following I/R insult (data not shown). […] By 48 hours post-I/R, plasma PTH levels were elevated to ˜450 pg/mL (˜5 fold increase) and in some instances reach as high as ˜1200 pg/mL. This reproducible increase in serum creatinine and PTH provided a robust model that mimics the physiology seen ESRD patients.
The protocol used in this study is as follows. Male Sprague Dawley rats were purchased from Charles River Laboratories (Hollister, Calif.; requested purchase weight 250-275 g). […] Animals were maintained in a temperature-controlled environment with a constant 12 hours light/12 hours dark cycle and free access to food and water at all times. All experimental procedures with animals were performed according to IACUC guidelines.
General anesthesia was induced and maintained by intraperitoneal (IP) injection of sodium pentobarbital (5.2%, 0.4 mL/rat). For animals that received 45 minutes of renal ischemia an additional IP injection of sodium pentobarbital (5.2%, 0.1 mL/rat) was given to maintain the anesthetic plane. Blood sampling for PTH measurements following administration of compounds in normal rats was done under continuous isoflurane anesthesia.
For model development studies, the left femoral vein was cannulated with a PE-10 tube for blood drawing. Both kidneys were exposed via a laparotomy. A right nephrectomy was performed after the right renal pedicle and ureter were ligated with double 2-0 silk sutures. After confirmation of non-bleeding in the right pedicle, the left renal artery was carefully dissected and clamped with a micro vascular clip to induce left renal global ischemia. Renal ischemia was confirmed by observation of a global white-grey color change (blanching). The abdominal incision was temporarily covered with gauze to help maintain the temperature of the abdominal organs. After 45 minutes, the designated period of ischemia, the clip was removed and left renal artery flow was considered restored upon observation of a global restoration of red color. The abdominal incision was closed in layers with 2-0 silk sutures. The animal was then recovered from anesthesia. Physiological parameters including body temperature (36-37.5° C.) and body weight were measured throughout the procedure. Body temperature was monitored and maintained using a heat pad rectal probe feedback system.
Approximately 48 hours after the 1K1C surgery (I/R injury), animals were dosed with various compounds to measure effects on plasma PTH and calcium. In most cases, test articles were administered by IV infusion (infusion time 5, 10 or 30 minutes) although in some studies compounds were administered by IV bolus or subcutaneous (SC) bolus injection. For drug administration and blood draws, animals were anesthetized with isoflurane.

plasma PTH [2] = experiment: In vivo PTH lowering after IV bolus in isoflurane-anesthetized normal Sprague Dawley rats; parameters: species or system rat; settings: for PTH-lowering activity in normal rats: 0.5 mg/kg single IV administration
Summary of the method: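 Peptides were given as a 0.5 mg/kg IV bolus to normal Sprague Dawley rats kept under isoflurane throughout, with saline bolus controls.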

plasma histamine [3] = settings: rat
Experimental: For the in vivo evaluation of histamine release, compounds were dosed in isoflurane-anesthetized normal rats at 2 mg/kg by IV bolus (administered over less than one minute). Plasma histamine was measured 5 minutes after compound administration (Cayman histamine EIA #589651).

plasma histamine [4] = settings: rat, in vivo
plasma PTH [5] = experiment: Micropore-facilitated transdermal delivery, plasma PTH in rats; settings: CD hairless rats, derma roller microporation, 10% solution in reservoir, FIG. 11
[6] = 3 mg/kg 30-minute IV infusion, FIG. 1

Histamine response in vivo Fold change from pre-dose levels 5′ post injection 2 mg/kg IV bolus (plasma histamine [3]) [fold]	fold increase in histamine level relative to pre-dose (plasma histamine [4]) [fold]	SMILES	PTH reduction from baseline 16 hours after dosing (plasma PTH [1]; 1 mg/kg 30-minute IV infusion) [%]	initial fall of PTH levels from baseline (plasma PTH [1]; 1 mg/kg 30-minute IV infusion)	initial drop of PTH, level as % of baseline (plasma PTH [1]; 1 mg/kg SC bolus) [%]	duration of reduced plasma PTH levels (plasma PTH [1]; 1 mg/kg, SC bolus or 30-minute IV infusion (both routes))	reduced PTH levels from baseline twenty-four hours after dosing (plasma PTH [1]; 1 mg/kg, either route (SC bolus or IV infusion))	PTH-lowering efficacy and duration of action (plasma PTH [1]; [6])	mean PTH reduction at the 24 hour time point (plasma PTH [1]; [6]) [%]	duration of decreased PTH (plasma PTH [2]; 0.5 mg/kg IV bolus, normal rats, FIG. 5)	PTH-lowering activity in normal rats (plasma PTH [2])	% PTH reduction of baseline at 1 hour post IV admin. of 0.5 mg/kg compound (plasma PTH [2]; Table 1, isoflurane-anesthetized normal rats, 0.5 mg/kg IV, 1 hour) [%]	0.5 mg/kg IV bolus % PTH AUC of saline control (plasma PTH [2]; Table 1, normal rats, PTH at 1, 2, 3, 4 h, AUCcmpd treated/AUCsaline control*100) [%]	0.5 mg/kg IV bolus % PTH AUC of saline control (plasma PTH [2]; Table 3, normal rats, AUC 1-4 h) [%]	histamine response after IV bolus (plasma histamine [4]; iv)	duration of PTH reduction from baseline (plasma PTH [5]) [h]	PTH-lowering activity (plasma PTH [1]; 1 mg/kg 30-minute IV infusion, over 24 hours, FIG. 9)	% PTH reduction of baseline at 1 hour post IV administration of 0.5 mg/kg compound (plasma PTH [2]; Table 2, isoflurane-anesthetized normal rats, 0.5 mg/kg IV, 1 hour) [%]	0.5 mg/kg IV bolus % PTH AUC of saline control (plasma PTH [2]; Table 2, normal rats, AUC 1-4 h) [%]
2.7	7	CC(=O)N[C@H](CS)C(=O)N[C@H](CCCNC(=N)N)C(=O)N[C@H](CCCNC(=N)N)C(=O)N[C@H](CCCNC(=N)N)C(=O)N[C@H](CCCNC(=N)N)C(=O)N[C@H](CCCNC(=N)N)C(=O)N[C@H](CCCNC(=N)N)C(N)=O [SEQ ID NO: 6, Ac-crrrrrr-NH2]	~80	80-90%	~40	over 24 hours	40-60%	increased efficacy as well as the duration of action	~40	at least four hours	below the detection limit or essentially zero	4	0	3	returned to baseline levels 15 minutes later	~4	–	–	–
1.0	–	CC(=O)N[C@H](CS)C(=O)N[C@H](C)C(=O)N[C@H](CCCNC(=N)N)C(=O)N[C@H](CCCNC(=N)N)C(=O)N[C@H](CCCNC(=N)N)C(=O)N[C@H](C)C(=O)N[C@H](CCCNC(=N)N)C(N)=O [SEQ ID NO: 26, Ac-carrrar-NH2]	–	–	–	–	–	–	–	–	decreased PTH blood concentration to a non-detectable level for up to 4 hours after dosing; also recorded: very active	–	–	–	–	–	activity that is equivalent to Ac-crrrrrr-NH2	0	1
